Tested on: Henrietta Lacks (HeLa) cells and human aortic smooth muscle cells (AoSMC)
Assay: Ultrasound-mediated peptosome rupture and intracellular calcein delivery, flow cytometry
Type: cell-based
Settings: calcein released from peptosomes, contrast agent present
Source text: Ultrasound. Ultrasonic energy is produced using an immersible, focused, piezoceramic transducer. In this experimental system, two different matching resistance networks are necessary, allowing production of sound at 1.0 MHz and 3.0 MHz, similar to a method known in the art (Guzmán et al., 2001a, 2001b, 2002, and 2003; and […] et al., 2006). A sinusoidal waveform is produced by, for example, programmable waveform generators (Stanford Research Instruments, Sunnyvale, Calif.) used in conjunction to control pulse length, frequency, and peak-to-peak voltage. The sinusoidal waveform is amplified by an RF broadband power amplifier (Electronic Navigation Industries, Rochester, N.Y.) before passing through a matching network and controlling the response of the transducer. The transducer is housed in a polycarbonate tank (FIG. 11 [601]) -34.5×32×40 cm; containing approximately 34 liters of deionized, distilled, and partially degassed water at room temperature (i.e., 22° C. to 23° C.). A thick acoustic absorber is mounted opposite the transducer to minimize standing-wave formation (not illustrated). […] A metal rod (606) is immediately inserted into the open end of the sample chamber and then attached to the three-axis positioning system (603), placing the sample in the desired location as determined by the hydrophone (604). […]

Structure (SMILES): O=C(O)CN(CC(=O)O)Cc1cc2c(cc1O)Oc1cc(O)c(CN(CC(=O)O)CC(=O)O)cc1C21OC(=O)c2ccccc21 [calcein, Calcein]
- calcein uptake into cells (mild ultrasound conditions): low levels
- calcein uptake into cells (moderate ultrasound conditions): as many as one-third of cells

Source: patent US20080312581A1, “Peptosomes for Use in Acoustically Mediated Intracellular Drug Delivery in vivo” (Biovaluation & Analysis, Inc., priority 2007, published 2008)
